# Source: patent US12678388B2, “Dermatological compositions and use thereof” (BONE SCI. BIO LTD., priority 2021, dated 2026)
# Peptide text beside a SMILES is read from it.
# Experiments:
# Assay type in all cases: in vivo
# albino rabbits [1] = assay: Implantation test (local implantation effects, femur); conditions: 3% w/v PFD5 formulation
# Description: In order to test the local implantation effects of a 3% w/v PFD5 formulation according to certain embodiments of the present invention, an implantation test was performed.
# 10 albino rabbits were used for the test: each animal was implanted with the test sample at the right femur and with negative control (USP reference standard control plastic, HDPE) at the left femur, for a total of two sites/animal.
# One explant time was scheduled after 4 weeks. Animals were daily submitted to general objective exam with the purpose to detect possible local effects due to the sample. The behavior of animals was observed and all abnormalities were recorded. During the explant, all implanted sites with the test sample and with the negative control were harvested and observed macroscopically to determine any injuries. Implantation sites of each animal and local lymph nodes were preserved in formalin 10% buffer solution and used for histological evaluation. […] Nothing abnormal was detected macroscopically in both treated and control sites of all animals.
# rats = assay: Tissue augmentation in subcutaneous rat model; conditions: PFD5 3.5% w/v
# Description: The effect of PFD5 3.5% w/v hydrogel on tissue augmentation was tested in a subcutaneous rat model and compared to the effect obtained in rats treated with a commercially available hyaluronic acid dermal filler. Individual rats were treated with 0.2 ml of PFD5 hydrogel or HA injection administered subcutaneously above the parietal bone. Animals were held for three days, one month and four months after which implants were excised and underwent histological examination and analysis for the area occupied by the implant. […] Due to the lower swellability of the PFD5 hydrogel as compared to the HA hydrogel, the area remained more invariable.
# albino rabbits [2] = assay: Intracutaneous reactivity test; conditions: for primary irritation index (Treated-Control): 0.2 ml intracutaneous; for erythema and oedema at treated sites: 24, 48 and 72 hours, same in vehicle control sites
# Description: In order to test the potential irritation effects of the formulation according to certain embodiments of the present invention, an intracutaneous reactivity test was performed. Two extracts of a 3% w/v PFD5 hydrogel sample, one in a non-polar vehicle, cottonseed oil, and one in a polar vehicle, sodium chloride injection (0.9%), were prepared by immersing the sample in the relative solvents in order to reach a weight/volume ratio of 0.2 g/ml and incubating at 37±1° C. for 72±2 h in dynamic conditions (orbital stirrer). 0.2 ml of the two extracts and 0.2 ml of the respective solvents were intracutaneously injected in five sites of 3 albino rabbits, and macroscopical skin reactions, as erythema, oedema and eschar were evaluated. No abnormalities immediately after intradermal injection of sodium chloride injection extract and sodium chloride injection (vehicle control) were observed. […] The primary irritation index in sodium chloride injection (Treated-Control) was 0.00. No abnormalities immediately after intradermal injection of cottonseed oil extract and cottonseed oil (vehicle control) were observed. […] The primary irritation index in cottonseed oil (Treated-Control) was 0.00.
smiles,measurement,setting,value
"O=C(O)C[C@H](NC(=O)[C@@H]1CCCN1)C(=O)N[C@@H](Cc1ccccc1)C(=O)N[C@@H](CC(=O)O)C(=O)N[C@@H](Cc1ccccc1)C(=O)N[C@@H](CC(=O)O)C(=O)N[C@@H](Cc1ccccc1)C(=O)N[C@@H](CC(=O)O)C(=O)N[C@@H](Cc1ccccc1)C(=O)N[C@@H](CC(=O)O)C(=O)N[C@@H](Cc1ccccc1)C(=O)N[C@@H](CC(=O)O)C(=O)N1CCC[C@H]1C(=O)O [PFD5, Pro-(Asp-Phe)5-Asp-Pro] (H-PDFDFDFDFDFDP-OH)",inflammatory responses or necrosis at the sites of implantation,albino rabbits [1]; 4 weeks,no inflammatory responses or necrosis
same,local effects compared to the negative control,"albino rabbits [1]; 4 weeks after implantation, control HDPE",Minimal local effects
same,adverse tissue reaction (histology),rats,deprived of multinucleated giant cells or other adverse effects to nearby tissue
same,primary irritation index (Treated-Control),albino rabbits [2]; cottonseed oil extract of 3% w/v PFD5 hydrogel,0.00
same,erythema and oedema at treated sites,albino rabbits [2]; cottonseed oil extract,a slight erythema and a slight oedema
same,primary irritation index (Treated-Control),albino rabbits [2]; sodium chloride injection extract of 3% w/v PFD5 hydrogel,0.00
same,erythema and oedema at treated sites,albino rabbits [2]; sodium chloride injection extract,no signs of erythema or oedema
